Experimental findings from PubChem BioAssay AID256 (DTP/NCI, 2004) are described below.

For the test, the system named is CD2F1 mice, L1210 leukemia ip, survival T/C. Put plainly: NCI In Vivo Anticancer Drug Screen. Data for tumor model L1210 Leukemia (intraperitoneal) in CD2F1 (CDF1) mice. The settings on record: endpoint: mean survival time, higher = longer survival. Put shortly: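 Transplantable tumor in mice; compound-treated vs vehicle-treated groups. Read-out = treated/control ratio of the measured endpoint.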

The mark [1] stands for this setting: dose: 5.0 mg/kg/injection, schedule: Q01DX001 (ip), vehicle: saline.
The mark [2] stands for this setting: dose: 10.0 mg/kg/injection, schedule: Q01DX001 (ip), vehicle: saline.
Where [3] appears, read: dose: 20.0 mg/kg/injection, schedule: Q01DX001 (ip), vehicle: saline.
Setting [4] is: dose: 100.0 mg/kg/injection, schedule: Q01DX001 (ip), vehicle: saline with Tween-80.
Setting [5] is: dose: 200.0 mg/kg/injection, schedule: Q01DX001 (ip), vehicle: saline with Tween-80.
Setting [6] is: dose: 400.0 mg/kg/injection, schedule: Q01DX001 (ip), vehicle: saline with Tween-80.
[7] abbreviates: dose: 100.0 mg/kg/injection, schedule: Q01DX009 (ip), vehicle: saline with Tween-80.
Setting [8] is: dose: 200.0 mg/kg/injection, schedule: Q01DX009 (ip), vehicle: saline with Tween-80.
The mark [9] stands for this setting: dose: 400.0 mg/kg/injection, schedule: Q01DX009 (ip), vehicle: saline with Tween-80.
[10] abbreviates: dose: 100.0 mg/kg/injection, schedule: Q04DX003 (ip), vehicle: saline with Tween-80.
Where [11] appears, read: dose: 200.0 mg/kg/injection, schedule: Q04DX003 (ip), vehicle: saline with Tween-80.
[12] abbreviates: dose: 400.0 mg/kg/injection, schedule: Q04DX003 (ip), vehicle: saline with Tween-80.
The mark [13] stands for this setting: dose: 100.0 mg/kg/injection, schedule: Q01DX001 (ip), vehicle: saline.
Where [14] appears, read: dose: 200.0 mg/kg/injection, schedule: Q01DX001 (ip), vehicle: saline.
[15] abbreviates: dose: 400.0 mg/kg/injection, schedule: Q01DX001 (ip), vehicle: saline.
Where [16] appears, read: dose: 25.0 mg/kg/injection, schedule: Q01DX009 (ip), vehicle: saline with Tween-80.
[17] abbreviates: dose: 50.0 mg/kg/injection, schedule: Q01DX009 (ip), vehicle: saline with Tween-80.

Values joined by “and” are separate entries in the source; they are usually repeats but may differ in a detail not shown here. Identical values can stand only once. Inconclusive results and toxic doses are left out.

For the compound `O=CO.[Tl]`, the T/C runs as follows: under setting [1], 104 % of control; under setting [2], 98 % of control; under setting [3], 95 % of control; (dose: 40.0 mg/kg/injection, schedule: Q01DX001 (ip), vehicle: saline) 98 % of control; (dose: 80.0 mg/kg/injection, schedule: Q01DX001 (ip), vehicle: saline) 104 % of control.
As to `O=C(O)c1ccc([N+](=O)[O-])cc1`, the T/C is 93 % of control (dose: 100.0 mg/kg/injection, schedule: Q04DX002 (ip), vehicle: Klucel (hydroxypropylcellulose) (HPC)); 101 % of control (dose: 200.0 mg/kg/injection, schedule: Q04DX002 (ip), vehicle: Klucel (hydroxypropylcellulose) (HPC)); 86 % of control (dose: 400.0 mg/kg/injection, schedule: Q04DX002 (ip), vehicle: Klucel (hydroxypropylcellulose) (HPC)).
`OCCOc1ccc2ccccc2c1`: the T/C reads like this: under setting [4], 100 % of control; (dose: 100.0 mg/kg/injection, schedule: Q04DX003 (ip), vehicle: saline + alcohol) 97 % of control; under setting [5], 108 % of control; (dose: 200.0 mg/kg/injection, schedule: Q04DX003 (ip), vehicle: saline + alcohol) 95 % of control; under setting [6], 103 % of control; (dose: 400.0 mg/kg/injection, schedule: Q04DX003 (ip), vehicle: saline + alcohol) 91 % of control.
Turning to `N#CNC=Nc1ccccc1`, the T/C was 95 % of control (dose: 100.0 mg/kg/injection, schedule: Q04DX003 (ip), vehicle: saline); 95 % of control (dose: 200.0 mg/kg/injection, schedule: Q04DX003 (ip), vehicle: saline); 100 % of control (dose: 400.0 mg/kg/injection, schedule: Q04DX003 (ip), vehicle: saline).
For the compound `COC1OC(COC(=O)c2ccc([N+](=O)[O-])cc2)C(SC#N)C1O` (stereo unspecified), under “dose: 150.0 mg/kg/injection, schedule: Q01DX001 (ip), vehicle: saline”, the T/C is 93 % of control.
Turning to `CCOC(=O)C1=C(C)NC(C)=C(C(=O)OCC)C1Cc1ccccc1`, the T/C reads like this: (dose: 100.0 mg/kg/injection, schedule: Q01DX009 (ip), vehicle: other) 106 % of control; (dose: 200.0 mg/kg/injection, schedule: Q01DX009 (ip), vehicle: other) 98 % of control; (dose: 400.0 mg/kg/injection, schedule: Q01DX009 (ip), vehicle: other) 104 % of control.
For `CC(C)(C)CC(C)(C)c1ccc(OCCOc2ccccc2NS(=O)(=O)c2ccc(N)cc2)cc1`, the T/C (dose: 100.0 mg/kg/injection, schedule: Q01DX001 (ip), vehicle: Klucel (hydroxypropylcellulose) (HPC)) was 98 % of control and the T/C (dose: 200.0 mg/kg/injection, schedule: Q01DX001 (ip), vehicle: Klucel (hydroxypropylcellulose) (HPC)) is 96 % of control.
For `COC1=[C]([Hg][Br])C(OC)OC1OC` (stereo unspecified), the T/C under setting [1] is 98 % of control, the T/C under setting [2] is 102 % of control and the T/C under setting [3] was 110 % of control.
With `Nc1ncnc2nc(-c3cccc(CNC(=O)c4ccccc4S(=O)(=O)F)c3)[nH]c12`, the T/C reads like this: under setting [4], 87 % of control; under setting [6], 87 % of control.
For `O=Cc1ccc(C(=O)O)cc1`, the T/C was 95 % of control under setting [7], 98 % of control under setting [8] and 101 % of control under setting [9].
Consider `NC(=O)CSCC(N)=O`, for which the T/C was 94 % of control under setting [10], 96 % of control under setting [11] and 90 % of control under setting [12].
For the compound `CCOC(=O)c1cc(-c2ccc(Cl)cc2)nc2c1ccc1ccccc12`, the T/C runs as follows: under setting [13], 100 % of control; under setting [14], 96 % of control; under setting [15], 108 % of control.
For `Oc1cc(O)c2c(c1)O[C@H](c1ccc(O)c(O)c1)[C@@H](O)C2` the same measures were 101 % of control, 101 % of control and 98 % of control.
Consider `CC(=O)/C=C/Sc1n[nH]c(=O)[nH]c1=O`, for which the T/C runs as follows: (dose: 12.5 mg/kg/injection, schedule: Q01DX005 (ip), vehicle: distilled water + Tween-80) 106 % of control; (dose: 25.0 mg/kg/injection, schedule: Q01DX005 (ip), vehicle: distilled water + Tween-80) 101 % of control; (dose: 50.0 mg/kg/injection, schedule: Q01DX005 (ip), vehicle: distilled water + Tween-80) 107 % of control; (dose: 100.0 mg/kg/injection, schedule: Q01DX005 (ip), vehicle: distilled water + Tween-80) 98 % of control.
Consider `O=[N+]([O-])c1ccccc1NS(=O)(=O)c1ccccc1`, for which the T/C is, setting by setting: under setting [4], 100 % of control; under setting [5], 102 % of control; under setting [6], 107 % of control.
Consider `CNNCc1ccc(/C=N/NC(N)=S)cc1`, for which the T/C was 96 % of control (dose: 6.25 mg/kg/injection, schedule: Q01DX009 (ip), vehicle: water); 98 % of control (dose: 12.5 mg/kg/injection, schedule: Q01DX009 (ip), vehicle: water); 100 % of control (dose: 25.0 mg/kg/injection, schedule: Q01DX009 (ip), vehicle: water); 86 % of control and 96 % of control (dose: 50.0 mg/kg/injection, schedule: Q01DX009 (ip), vehicle: water); 86 % of control and 96 % of control (dose: 100.0 mg/kg/injection, schedule: Q01DX009 (ip), vehicle: water).
Turning to `CN(C)N=Nc1c(F)c(F)cc(F)c1F`, the T/C reads like this: under setting [16], 102 % of control; under setting [17], 107 % of control; under setting [8], 151 % of control; under setting [9], 112 % of control.
In the case of `Cc1c(F)c(F)c(C(=O)O)c(F)c1F`, the T/C runs as follows: under setting [7], 96 % of control; under setting [10], 100 % of control; under setting [8], 93 % of control; under setting [11], 101 % of control; under setting [12], 93 % of control.
In the case of `c1ccc(C2Cc3ccccc3C2=NC2CCCCC2)cc1` (stereo unspecified), the T/C under setting [4] was 97 % of control, the T/C under setting [5] is 93 % of control and the T/C under setting [6] is 90 % of control.
Regarding `C=C(Br)CNC(=O)C(C)(C)C`, the T/C was 96 % of control (dose: 12.5 mg/kg/injection, schedule: Q01DX009 (ip), vehicle: saline with Tween-80); 96 % of control under setting [16]; 100 % of control under setting [17]; 93 % of control under setting [7].
In the case of `Brc1ccc(N=Cc2ccccc2)cc1`, the T/C reads like this: (dose: 100.0 mg/kg/injection, schedule: Q04DX002 (ip), vehicle: saline) 100 % of control; (dose: 200.0 mg/kg/injection, schedule: Q04DX002 (ip), vehicle: saline) 103 % of control; (dose: 400.0 mg/kg/injection, schedule: Q04DX002 (ip), vehicle: saline) 107 % of control.
In the case of `[O]=[Nb]`, the T/C was 102 % of control (dose: 5.0 mg/kg/injection, schedule: Q04DX003 (ip), vehicle: saline) and 98 % of control (dose: 10.0 mg/kg/injection, schedule: Q04DX003 (ip), vehicle: saline).
For `CC(=O)OC1CCC2(C)C3CCC4(C)C(C(C)CCCC(C)C)CCC4C3C3C(=O)OC32C1` (stereo unspecified), the T/C runs as follows: (dose: 100.0 mg/kg/injection, schedule: Q01DX001 (ip), vehicle: acetone) 97 % of control; (dose: 100.0 mg/kg/injection, schedule: Q04DX003 (ip), vehicle: acetone) 98 % of control; (dose: 200.0 mg/kg/injection, schedule: Q01DX001 (ip), vehicle: acetone) 101 % of control; (dose: 200.0 mg/kg/injection, schedule: Q04DX003 (ip), vehicle: acetone) 93 % of control; (dose: 400.0 mg/kg/injection, schedule: Q01DX001 (ip), vehicle: acetone) 97 % of control; (dose: 400.0 mg/kg/injection, schedule: Q04DX003 (ip), vehicle: acetone) 90 % of control.
Consider `CC1(C)C(O)(C#N)C(C)(C)C1(O)C#N` (stereo unspecified), for which the T/C reads like this: (dose: 6.25 mg/kg/injection, schedule: Q04DX003 (ip), vehicle: saline) 102 % of control; (dose: 12.5 mg/kg/injection, schedule: Q04DX003 (ip), vehicle: saline) 97 % of control.
